Measurements taken from publication PMC10947579, “Structure‐Based Demystification of Radical Catalysis by a Coenzyme B12 Dependent Enzyme—Crystallographic Study of Glutamate Mutase with Cofactor Homologues” (Angewandte Chemie (Weinheim an Der Bergstrasse, Germany), 2022).

Target: T1, glutamate mutase (GM) (Clostridium cochlearium, UniProt P80077+P80078)
T1 construct: gene glmE; hetero-tetramer (two epsilon, two sigma subunits), reconstituted with cobalamin
T1 sequence (P80077 1-483): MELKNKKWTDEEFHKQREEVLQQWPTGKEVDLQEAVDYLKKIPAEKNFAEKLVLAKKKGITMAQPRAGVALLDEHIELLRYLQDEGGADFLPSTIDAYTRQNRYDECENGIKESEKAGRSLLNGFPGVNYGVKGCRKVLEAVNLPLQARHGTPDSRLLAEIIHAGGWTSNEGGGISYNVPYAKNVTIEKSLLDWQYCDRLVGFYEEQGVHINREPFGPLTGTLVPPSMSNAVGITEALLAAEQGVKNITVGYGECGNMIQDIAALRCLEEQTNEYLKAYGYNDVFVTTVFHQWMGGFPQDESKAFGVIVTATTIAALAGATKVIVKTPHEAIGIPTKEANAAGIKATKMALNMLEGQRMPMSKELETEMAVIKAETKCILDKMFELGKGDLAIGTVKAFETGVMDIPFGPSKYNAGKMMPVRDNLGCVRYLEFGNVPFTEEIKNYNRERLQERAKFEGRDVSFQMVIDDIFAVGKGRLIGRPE
T1 sequence (P80078 1-137): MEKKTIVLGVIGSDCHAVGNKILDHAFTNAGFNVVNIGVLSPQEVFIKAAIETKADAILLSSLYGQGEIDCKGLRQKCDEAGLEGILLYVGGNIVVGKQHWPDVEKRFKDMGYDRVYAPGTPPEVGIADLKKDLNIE
Assay: X-ray crystal structure, […] Å
Assay type: binding
Conditions: with AdoMeCbl (also bound in the AdoEtCbl complex 6H9F); pseudo-substrate in substrate site of epsilon subunit (arginine claw)

SMILES: O=C(O)[C@@H](O)[C@H](O)C(=O)O [(S,S)‐tartrate]
- X-ray crystal structure, 1.8 Å: strong polar binding interactions with the carboxylate groups of an (S,S)‐tartrate ion
